Legend:
[1] = system: FdxT (DNA, hairpin, hexaethylene glycol linker between 10 and 11) TATAGCTATATATAGCTATA; assay: FRET melting; conditions: 10 mM K+, 90 mM Li+, 10 mM lithium cacodylate pH 7.2, 0.2 µM DNA
[2] = system: K562; assay: MTS cell proliferation assay, K562; type: cell-based, human; conditions: for IC50: Homo sapiens, K562, 72 h, MTS, 3-day incubation, leukemia cells, read-out: IC50 Values (μM) ± SEM K562; for Selectivity Index HEK293/K562: IC50 HEK293 / IC50 K562
Protocol: The human leukemic cell line K562 was grown in RPMI 1640 medium (Life Technology-Invitrogen by Thermo Fisher Scientific, Saint-Aubin, France) supplemented with 10% fetal calf serum (FCS), antibiotics (100 U/mL penicillin, 100 µg/mL streptomycin), and L-glutamine, (Eurobio, Les Ulis, France) at 37 °C, 5% CO2 in air. The MTS cell proliferation assay (Promega, Charbonnières-les-Bains, France) is a colorimetric assay system, which measures the transformation of a tetrazolium component (MTS) into formazan produced by the mitochondria of viable cells. Cells were washed twice in PBS (Phosphate Buffer Saline) and plated in quadruplicate into microtiter-plate wells in 100 μL culture media with or without our various compounds at increasing concentrations (0, 1, 5, 10, 20, and 50 μM) for 1, 2, and 3 days. After 3 h of incubation at 37 °C with 20 μL MTS/well, the plates were read using an ELISA microplate reader (Thermo, Electrocorporation, Waltham, MA, USA) at 490 nm. The amount of color produced was directly proportional to the number of viable cells. The results are expressed as the concentrations inhibiting cell growth by 50% after a 3-day incubation period. The 50% cytotoxic concentrations (CC50) were determined by linear regression analysis, expressed in μM ± SD (Microsoft Excel).

[3] = system: A2780; assay: MTT antiproliferative assay, A2780; type: cell-based, human; conditions: for IC50: Homo sapiens, A2780, MTT, 72 h, ovarian cancer cells, read-out: IC50 Values (μM) ± SEM A2780; for Selectivity Index HEK293/A2780: IC50 HEK293 / IC50 A2780
Protocol: (§1) The growth-inhibitory effects of the compounds were determined by MTT (3-(4,5-dimethylthiazol-2-yl)-2,5-diphenyltetrazolium bromide) assay on selected cell lines, including HeLa and SiHa (cervical cancers), MDA-MB-231 and MCF-7 (breast cancers), and A2780 ovarian cancer cells. All cell lines were purchased from the European Collection of Cell Cultures (Salisbury, UK) except SiHa, which was obtained from the American Tissue Culture Collection (Manassas, VA, USA). The cells were kept in minimum essential medium supplemented with 10% fetal bovine serum, 1% non-essential amino acids, and 1% penicillin-streptomycin-amphotericin-B at 37 °C in a humidified atmosphere containing 5% CO2. Media and supplements were obtained from Lonza Group Ltd., (Basel, Switzerland). Cancer cells were seeded onto 96-well plates (5000 cells/well), after an overnight incubation the test compounds were added in six concentrations (0.1, 0.3, 1.0, 3.0, 10.0, 30.0 µM) and incubated for 72 h under cell-culture condition. After the incubation, 20 μL of 5 mg/mL MTT solution was added to each well and incubated for a further 4 h. The medium was removed, and the precipitated formazan crystals were dissolved in DMSO for 30 min under shaking at 37 °C. The absorbance was measured at 545 nm with a microplate reader. Untreated cells were included as controls. Calculations were performed by means of the GraphPad Prism 5.01 software (GraphPad Software Inc., San Diego, CA, USA). At least two independent determinations were performed with 5 parallel wells for each condition.

[4] = system: FBCL-2T; assay: FRET-melting, FBCL-2T; type: binding; conditions: DNA 0.2 μM, 10 mM KCl, 90 mM LiCl, pH 7.2
Protocol: (§2) FRET-melting experiments were conducted on a Stratagene MX3005P (Thermo Fisher Scientific, Illkirch-Graffenstaden, France) real-time PCR equipment in 96-well plates on the DNA sequences reported in Table 4. Experiments were performed in 10 mM lithium cacodylate buffer (pH 7.2) and either 10 mM KCl and 90 mM LiCl (FK-RAST, FBCL-2T, F21T, and FdxT) or 1 mM KCl and 99 mM LiCl (Fc-MYCT) concentrations, depending on the Tm of the G4s alone. The DNA concentration was 0.2 µM. […] Data are presented as an average of three independent measurements, each conducted in duplicate conditions (λexc = 492 nm, λem = 516 nm, T interval = 25–95 °C, ramp: 25 °C for 5 min, then 1 °C/min, measurements every 1 °C, 8× magnification of the fluorescence signal).

[5] = system: HeLa; assay: MTT antiproliferative assay, HeLa; type: cell-based, human; conditions: for IC50: Homo sapiens, HeLa, MTT, 72 h, cervical cancer cells, read-out: IC50 Values (μM) ± SEM HeLa; for Selectivity Index HEK293/HeLa: IC50 HEK293 / IC50 HeLa
Protocol: as §1

[6] = system: FK-RAST; assay: FRET-melting, FK-RAST; type: binding; conditions: DNA 0.2 μM, 10 mM KCl, 90 mM LiCl, pH 7.2
Protocol: as §2

[7] = system: telomerase; assay: Telomerase activity (TRAP assay) in MCF-7 cell lysates; type: biochemical, human; conditions: MCF-7 cell lysate; for telomerase activity compared to control: 5 µM compound
Protocol: Telomerase activity was assessed using the TRAP assay kit (TRAPeze® RT telomerase detection kit, Chemicon, Millipore Sigma S7700, Merck KGaA, Darmstadt, Germany) according to manufacturer’s instructions with some modifications. Briefly, […] in CHAPS lysis buffer and proteins were extracted. Protein extracts and various concentrations of compounds (0 to 5 µM) were used to extend a synthetic telomeric DNA using an enzymatic reaction (30 °C during 20 min), followed by a quantification of telomeric DNA using a telomeric PCR amplification: 95 °C for 3 min, 2 cycles of 95 °C for 20 s, and 49 °C for 20 s, followed by 30 cycles 95 °C for 20 s and 60 °C for 20 s with signal acquisition) in a Stratagene Mx3005P system (Agilent, Les Ulis, France) using specific telomeric PCR quantitative primers. Each sample was measured in technical duplicate with control DNA. For each drug and each dilution, we used biological triplicate of cell lysates.

[8] = system: MDA-MB-231; assay: MTT antiproliferative assay, MDA-MB-231; type: cell-based, human; conditions: for IC50: Homo sapiens, MDA-MB-231, 72 h, MTT, 72 h, breast cancer cells, read-out: IC50 Values (μM) ± SEM MDA-MB-231; for Selectivity Index HEK293/MDA-MB-231: IC50 HEK293 / IC50 MDA-MB-231
Protocol: as §1

[9] = system: Fc-MYCT; assay: FRET-melting, Fc-MYCT; type: binding; conditions: DNA 0.2 μM, K+ conditions, pH 7.2
Protocol: as §2

[10] = system: FdxT; assay: FRET-melting, duplex control FdxT; type: binding; conditions: DNA 0.2 μM, 10 mM KCl, 90 mM LiCl, pH 7.2, hairpin duplex
Protocol: as §2

[11] = system: HEK293; assay: MTT proliferation test on normal cells, HEK293; type: cell-based; conditions: Homo sapiens, normal epithelial cells, cytotoxicity, read-out: IC50 Values (μM) ± SEM HEK293
Protocol: The MTT proliferation test on the epithelial cell line HEK293 was performed as pre-viously described. The 50% inhibiting concentrations (IC50) were determined by linear regression analysis.

[12] = system: MCF-7; assay: MTT antiproliferative assay, MCF-7; type: cell-based, human; conditions: for IC50: Homo sapiens, MCF7, 72 h, MTT, 72 h, breast cancer cells, read-out: IC50 Values (μM) ± SEM MCF-7; for Selectivity Index HEK293/MCF-7: IC50 HEK293 / IC50 MCF-7
Protocol: as §1

[13] = system: SiHa; assay: MTT antiproliferative assay, SiHa; type: cell-based, human; conditions: for IC50: Homo sapiens, SiHa, MTT, 72 h, cervical cancer cells, read-out: IC50 Values (μM) ± SEM SiHa; for Selectivity Index HEK293/SiHa: IC50 HEK293 / IC50 SiHa
Protocol: as §1

[14] = system: human telomeric sequence F21T; assay: FRET-melting, F21T; type: binding; conditions: DNA 0.2 μM, 10 mM KCl, 90 mM LiCl, pH 7.2
Protocol: as §2

[15] = system: F21T (DNA, G4) GGGTTAGGGTTAGGGTTAGGG; assay: FRET melting; conditions: 10 mM K+, 90 mM Li+; 10 mM lithium cacodylate pH 7.2; 0.2 µM DNA, 0.5 µM compound

Compound | IC50 [2] | Selectivity Index HEK293/K562 [2] | IC50 [3] | Selectivity Index HEK293/A2780 [3] | ΔT1/2 (°C) FBCL-2T ([4]; ligand 2 μM) | IC50 [5] | Selectivity Index HEK293/HeLa [5] | ΔT1/2 (°C) FK-RAST ([6]; ligand 2 μM) | telomerase activity compared to control [7] | IC50 [8] | Selectivity Index HEK293/MDA-MB-231 [8] | ΔT1/2 (°C) Fc-MYCT ([9]; ligand 2 μM) | ΔT1/2 (°C) FdxT ([10]; ligand 2 μM) | IC50 [11] | IC50 [12] | Selectivity Index HEK293/MCF-7 [12] | IC50 [13] | Selectivity Index HEK293/SiHa [13] | ΔT1/2 (°C) F21T ([14]; ligand 2 μM) | also measured
CN1CCN(CCCNCc2ccc(-c3cc(-c4ccc(CNCCCN5CCN(C)CC5)cc4)c4cc(-c5ccccc5)ccc4n3)cc2)CC1 | – | – | – | – | – | – | – | – | – | – | – | – | – | – | – | – | – | – | – | ΔT1/2 ([1]; 2 µM compound): 0.1 ± 0.2 °C
CN(C)CCCNCc1ccc(-c2nc(-c3ccc(CNCCCN(C)C)cc3)c3ccc(-c4ccccc4)cc3n2)cc1 [Compound 12f, 2,4-bis{4-[(3-dimethylaminopropyl)aminomethyl]phenyl}-7-phenylquinazoline] | 14 ± 0.3 µM | >2.14 | 0.79 ± 0.19 µM | >38.0 | 12.6 ± 0.6 °C | 1.51 ± 0.09 µM | >19.9 | 20.1 ± 0.3 °C | reduced drastically | 0.55 ± 0.01 µM | >54.5 | 9.1 ± 1.4 °C | 2.4 ± 0.1 °C | > 30 µM | 0.58 ± 0.08 µM | >51.7 | 0.75 ± 0.1 µM | >40.0 | – | –
CN(C)CCCCNCc1ccc(-c2nc(-c3ccc(CNCCCCN(C)C)cc3)c3ccc(-c4ccccc4)cc3n2)cc1 [Compound 12g, 2,4-bis{4-[(4-dimethylaminobutyl)aminomethyl]phenyl}-7-phenylquinazoline] | 12 ± 0.3 µM | 0.33 | 1.74 ± 0.89 µM | 2.29 | 17.5 ± 0.6 °C | 0.95 ± 0.51 µM | 4.19 | 24.3 ± 1.1 °C | – | 0.67 ± 0.35 µM | 5.94 | 14.7 ± 0.8 °C | 3.2 ± 0.3 °C | 3.98 ± 0.12 µM | 0.63 ± 0.35 µM | 6.32 | 0.52 ± 0.22 µM | 7.65 | 19.2 ± 1.0 °C | –
CN1CCN(CCCNCc2ccc(-c3nc(-c4ccc(CNCCCN5CCN(C)CC5)cc4)c4ccc(-c5ccccc5)cc4n3)cc2)CC1 [Compound 12i] | 23 ± 0.5 µM | >1.30 | 1.14 ± 0.16 µM | >26.3 | 14.8 ± 0.7 °C | 1.15 ± 0.36 µM | >26.1 | 20.2 ± 0.5 °C | reduced drastically | 0.52 ± 0.02 µM | >57.7 | 12.5 ± 0.7 °C | 1.9 ± 0.1 °C | > 30 µM | 0.67 ± 0.31 µM | >44.8 | 0.92 ± 0.24 µM | >32.6 | 18.6 ± 0.2 °C | concentration from which MCF-7 telomerase activity is decreased ([7]; 0 to 5 µM tested): 5 µM
CN1CCN(CCCCNCc2ccc(-c3nc(-c4ccc(CNCCCCN5CCN(C)CC5)cc4)c4ccc(-c5ccccc5)cc4n3)cc2)CC1 [Compound 12j, 2,4-bis{4-[(4-(4-methylpiperazin-1-yl)butyl)aminomethyl]phenyl}-7-phenylquinazoline] | 8 ± 0.2 µM | 0.61 | 1.44 ± 0.1 µM | 3.40 | 9.8 ± 1.0 °C | 1.48 ± 0.8 µM | 3.31 | 18.7 ± 1.6 °C | – | 1.1 ± 0.15 µM | 4.45 | 14.1 ± 0.3 °C | 1.5 ± 0.4 °C | 4.9 ± 0.15 µM | 0.58 ± 0.25 µM | 8.45 | 0.33 ± 0.08 µM | 14.85 | 14.5 ± 1.2 °C | –
C[n+]1cc(NC(=O)c2ccc3ccc4ccc(C(=O)Nc5cc6ccccc6[n+](C)c5)nc4c3n2)cc2ccccc21 [PhenDC3, reference compound] | – | – | – | – | – | – | – | – | – | – | – | – | – | – | – | – | – | – | – | ΔT1/2 ([1]; 0.5 µM compound): -0.6 ± 0.1 °C; ΔT1/2 [15]: 21.2 ± 0.5 °C; ΔT1/2 (°C) FBCL-2T ([4]; ligand 0.5 μM): 13.1 ± 0.1 °C; ΔT1/2 (°C) FK-RAST ([6]; ligand 0.5 μM): 16.9 ± 0.4 °C; ΔT1/2 (°C) Fc-MYCT ([9]; ligand 0.5 μM): 11.5 ± 0.3 °C; ΔT1/2 (°C) F21T ([14]; ligand 0.5 μM): 21.2 ± 0.5 °C; ΔT1/2 (°C) FdxT ([10]; ligand 0.5 μM): −0.6 ± 0.1 °C
